Reference: patent publication US20180000085A1, “USE OF PICOLINAMIDE COMPOUNDS WITH FUNGICIDAL ACTIVITY” (DOW AGROSCIENCES LLC, priority 2014, published 2018)

Tests used:
Zymoseptoria tritici = test: Leaf blotch of wheat (SEPTTR) disease control on wheat seedlings; format: in vivo; set-up: key to SEPTTR 1DP, HV activity at 100 ppm (% control rating) / SEPTTR 3DC, HV activity at 100 ppm (% control rating) / SEPTTR disease control, 1DP / SEPTTR disease control, 3DC / SEPTTR 1DP disease control rating, HV activity / SEPTTR 3DC disease control rating, HV activity / SEPTTR 3DC, LV activity at 125.1 g/H (% Control rating) / SEPTTR 1DP, LV activity at 125.1 g/H (% Control rating) / SEPTTR 1DP disease control rating, LV activity at 125.1 g/H / SEPTTR 3DC disease control rating, LV activity at 125.1 g/H / SEPTTR 3DC disease control rating, HV activity at 100 ppm / SEPTTR 1DP disease control rating, HV activity at 100 ppm / HV activity at 100 ppm SEPTTR 3DC (disease control rating) / HV activity at 100 ppm SEPTTR 1DP (disease control rating) / LV activity at 125.1 g/H SEPTTR 1DP (disease control rating) / LV activity at 125.1 g/H SEPTTR 3DC (disease control rating): A: > 80; B: ≤ 80; C: Not Tested; D: No Activity Observed in the Reported Assay; settings: for SEPTTR 1DP disease control rating, HV activity / SEPTTR 3DC disease control rating, HV activity: HV application at 100 ppm, wheat leaf blotch
Procedure: (§1) All fungicides were evaluated using the aforementioned method for their activity vs. all target diseases, unless stated otherwise. Wheat leaf blotch and brown rust activity were also evaluated using track spray applications, in which case the fungicides were formulated as EC formulations, containing 0.1% Trycol 5941 in the spray solutions. Wheat plants (variety Yuma) were grown from seed in a greenhouse in 50% mineral soil/50% soil-less Metro mix until the first leaf was fully emerged, with 7-10 seedlings per pot. These plants were inoculated with an aqueous spore suspension of Zymoseptoria tritici either prior to or after fungicide treatments. After inoculation the plants were kept in 100% relative humidity (one day in a dark dew chamber followed by two to three days in a lighted dew chamber at 20° C.) to permit spores to germinate and infect the leaf. The plants were then transferred to a greenhouse set at 20° C. for disease to develop. When disease symptoms were fully expressed on the 1st leaves of untreated plants, infection levels were assessed on a scale of 0 to 100 percent disease severity. Percent disease control was calculated using the ratio of disease severity on treated plants relative to untreated plants.

Puccinia triticina = test: Wheat brown rust (PUCCRT) disease control on wheat seedlings; format: in vivo; set-up: key to PUCCRT 3DC, HV activity at 100 ppm (% control rating) / PUCCRT disease control, 3DC / PUCCRT 1DP disease control rating, HV activity / PUCCRT 3DC disease control rating, HV activity / PUCCRT 3DC, LV activity at 125.1 g/H (% Control rating) / PUCCRT 1DP, LV activity at 125.1 g/H (% Control rating) / PUCCRT 3DC disease control rating, LV activity at 125.1 g/H / PUCCRT 1DP disease control rating, LV activity at 125.1 g/H / PUCCRT 3DC disease control rating, HV activity at 100 ppm / PUCCRT 1DP disease control rating, HV activity at 100 ppm / HV activity at 100 ppm PUCCRT 3DC (disease control rating) / LV activity at 125.1 g/H PUCCRT 1DP (disease control rating) / LV activity at 125.1 g/H PUCCRT 3DC (disease control rating): A: > 80; B: ≤ 80; C: Not Tested; D: No Activity Observed in the Reported Assay; settings: for PUCCRT 1DP disease control rating, HV activity / PUCCRT 3DC disease control rating, HV activity: HV application at 100 ppm, wheat brown rust
Procedure: as §1, with “plants. Example B: Evaluation of Fungicidal Activity: Wheat Brown Rust (Puccinia triticina; Synonym: Puccinia recondita f. sp. Tritici; Bayer Code PUCCRT) Wheat plants (variety Yuma) were grown from seed in a greenhouse in 50% mineral soil/50% soil-less Metro mix until the first leaf was fully emerged, with 7-10 seedlings per pot. These plants were inoculated with an aqueous spore suspension of Puccinia triticina either prior to or after fungicide treatments. […] The plants were then transferred to a greenhouse set at 24° C. for disease to develop. Fungicide formulation, application and disease assessment followed the procedures as described in the Example A.” for “plants.”

[1] = HV activity at 100 ppm, 1 Day Protectant, wheat
[2] = HV activity at 100 ppm, 3 Day Curative, wheat
[3] = high volume application, 100 ppm, 1DP
[4] = high volume application, 100 ppm, 3DC

Row | Compound | SEPTTR disease control, 1DP (Zymoseptoria tritici; [1]) | SEPTTR disease control, 3DC (Zymoseptoria tritici; [2]) | SEPTTR 1DP disease control rating, HV activity (Zymoseptoria tritici; 1 Day Protectant) | SEPTTR 3DC disease control rating, HV activity (Zymoseptoria tritici; 3 Day Curative) | SEPTTR 1DP, HV activity at 100 ppm (% control rating) (Zymoseptoria tritici; [3]) | SEPTTR 3DC, HV activity at 100 ppm (% control rating) (Zymoseptoria tritici; [4]) | PUCCRT disease control, 1DP (Puccinia triticina; [1]) | PUCCRT disease control, 3DC (Puccinia triticina; [2]) | PUCCRT 1DP disease control rating, HV activity (Puccinia triticina; 1 Day Protectant) | PUCCRT 3DC disease control rating, HV activity (Puccinia triticina; 3 Day Curative) | PUCCRT 1DP, HV activity at 100 ppm (% control rating) (Puccinia triticina; [3]) | PUCCRT 3DC, HV activity at 100 ppm (% control rating) (Puccinia triticina; [4])
1 | CCCOC(CC)C(Oc1ccccc1)C(C)OC(=O)C(CC)NC(=O)c1nccc(OC)c1O (stereo not drawn) [Cmpd 296] | B (≤ 80) | B (≤ 80) | B (≤ 80) | B (≤ 80) | B (≤ 80) | B (≤ 80) | B (≤ 80) | A (> 80) | B (≤ 80) | A (> 80) | B (≤ 80) | A (> 80)
2 | CC[C@@H](CCOC)[C@@H](Oc1ccccc1)[C@H](C)OC(=O)[C@H](C)NC(=O)c1nccc(OC)c1O [Cmpd 305] | – | – | A (> 80) | A (> 80) | – | – | – | – | A (> 80) | A (> 80) | – | –
3 | CCC(CC)[C@@H](Oc1ccccc1)[C@H](C)OC(=O)[C@H](C)NC(=O)c1nccc(OC)c1O [Cmpd 306] | – | – | A (> 80) | A (> 80) | – | – | – | – | A (> 80) | A (> 80) | – | –
4 | CCC(CC)[C@@H](Oc1ccccc1)[C@H](C)OC(=O)CNC(=O)c1nccc(OC)c1O [Cmpd 307] | – | – | D | A (> 80) | – | – | – | – | A (> 80) | A (> 80) | – | –
5 | CC[C@@H](CCOC)[C@@H](Oc1ccccc1)[C@H](C)OC(=O)[C@@H](C)NC(=O)c1nccc(OC)c1O [Cmpd 308] | – | – | D | B (≤ 80) | – | – | – | – | D | D | – | –
6 | CC[C@H](Oc1ccccc1)[C@@H](Oc1ccccc1)[C@H](C)OC(=O)[C@H](C)NC(=O)c1nccc(OC)c1O [Cmpd 309] | – | – | A (> 80) | B (≤ 80) | – | – | – | – | A (> 80) | A (> 80) | – | –
7 | CCCOC[C@@H](Oc1ccccc1)[C@H](C)OC(=O)[C@H](C)NC(=O)c1nccc(OC)c1O [Cmpd 310] | – | – | D | B (≤ 80) | – | – | – | – | A (> 80) | A (> 80) | – | –
8 | CC[C@H](Cc1ccccc1)[C@@H](Oc1ccccc1)[C@H](C)OC(=O)[C@H](C)NC(=O)c1nccc(OC)c1O [Cmpd 311] | – | – | A (> 80) | B (≤ 80) | – | – | – | – | A (> 80) | A (> 80) | – | –
9 | CC[C@H](Cc1ccccc1)[C@@H](Oc1ccccc1)[C@H](C)OC(=O)CNC(=O)c1nccc(OC)c1O [Cmpd 312] | – | – | D | D | – | – | – | – | A (> 80) | A (> 80) | – | –
10 | CC[C@@H](Cc1ccccc1)[C@H](Oc1ccccc1)[C@H](C)OC(=O)[C@H](C)NC(=O)c1nccc(OC)c1O [Cmpd 313] | – | – | A (> 80) | B (≤ 80) | – | – | – | – | A (> 80) | A (> 80) | – | –
11 | CCCOC[C@@H](Oc1ccccc1)[C@H](C)OC(=O)[C@H](CC)NC(=O)c1nccc(OC)c1O [Cmpd 314] | – | – | B (≤ 80) | D | – | – | – | – | A (> 80) | B (≤ 80) | – | –
12 | COc1ccnc(C(=O)N[C@@H](C)C(=O)O[C@@H](C)[C@@H](COc2ccccc2)Oc2ccccc2)c1O [Cmpd 315] | – | – | B (≤ 80) | B (≤ 80) | – | – | – | – | B (≤ 80) | A (> 80) | – | –
13 | CC[C@H](NC(=O)c1nccc(OC)c1O)C(=O)O[C@@H](C)[C@@H](COc1ccccc1)Oc1ccccc1 [Cmpd 316] | – | – | B (≤ 80) | B (≤ 80) | – | – | – | – | A (> 80) | A (> 80) | – | –
14 | CCC(CCC(C)C)C(Oc1ccccc1)C(C)OC(=O)C(C)NC(=O)c1nccc(OC)c1O (stereo not drawn) [Cmpd 317] | – | – | A (> 80) | B (≤ 80) | – | – | – | – | A (> 80) | B (≤ 80) | – | –
15 | CCC(CCC(C)C)C(OCC1CC1)C(C)OC(=O)C(C)NC(=O)c1nccc(OC)c1O (stereo not drawn) [Cmpd 318] | – | – | D | B (≤ 80) | – | – | – | – | D | B (≤ 80) | – | –
16 | COc1ccnc(C(=O)N[C@@H](C)C(=O)O[C@@H](C)[C@H](OCC2CC2)c2ccccc2)c1O [Cmpd 319] | – | – | A (> 80) | A (> 80) | – | – | – | – | A (> 80) | B (≤ 80) | – | –
17 | CCCO[C@@H]([C@H](C)OC(=O)[C@H](C)NC(=O)c1nccc(OC)c1O)[C@H](CC)Oc1ccccc1 [Cmpd 326, (S)-(2S,3S,4S)-4-phenoxy-3-propoxyhexan-2-yl-2-(3-hydroxy-4-methoxypicolinamido)propanoate] | – | – | D | D | – | – | – | – | A (> 80) | A (> 80) | – | –
18 | COc1ccnc(C(=O)N[C@@H](C)C(=O)O[C@@H](C)COCc2ccccc2)c1O [Cmpd 331] | – | – | B (≤ 80) | D | – | – | – | – | B (≤ 80) | A (> 80) | – | –
19 | C=CC[C@@H](OCc1ccccc1)[C@H](C)OC(=O)[C@H](C)NC(=O)c1nccc(OC)c1O [Cmpd 333, (S)-(2S,3R)-3-(benzyloxy)hex-5-en-2-yl-2-(3-hydroxy-4-methoxypicolinamido)propanoate] | – | – | B (≤ 80) | B (≤ 80) | – | – | – | – | A (> 80) | A (> 80) | – | –
